The record followed here is patent US6426370B1, “Use of thiol compounds in viral inactivation” (priority 2000, dated 2002).

Where “and” joins values, the source holds several entries; their conditions need not be identical. Identical values can stand only once.

The test system of experiment [1] is human immunodeficiency virus (HIV). The experiment can be described thus: Syncytia formation of H9 cells infected with HIV virions pre-incubated with NAC. Format: cell-based. To be noted: for Test positives p/4 (syncytia formation): virions pre-incubated with 0.09 M NAC for 2 h, 4 parallel assays. As to the method:
(§1) In order to examine whether NAC influences the HIV infection of cells, HIV-permissive cells ([…]) were incubated together with HIV-positive cell culture supernatant and the syncytia formation taking place upon successful infection of the host cell was observed. The H9 cell line is a CD4+ T-cell line of human origin (Popovic et al., 1984, Science 224:497-500). The HI virions (viral titer of the original solution is 10^7 viruses/ml) were initially pre-incubated together with NAC at room temperature for two hours (final NAC concentration 0.09 M, dissolved in serum-free cell culture medium) and then mixed with cell culture medium in a decadic dilution series (10^−1 to 10^−5). The same was made analogously with the control without NAC addition. Thereafter, the thus pretreated virions (and the untreated control, respectively) were added to the H9 cell culture for two hours to enable the adsorption of the viruses. Then, the suspension was washed with NAC-free medium and 48-well cell culture plates were covered therewith. Pour parallel assays were carried out for each dilution series. The giant cell formation was observed microscopically over an observation period of 26 days and assessed on a scale from 0 (no syncytia detectable) to 3 (great number of syncytia). It can be seen in connection with the untreated control (FIG. 1) that the syncytia formation is delayed when the viral titer decreases. The degree of syncytia formation is thus directly proportional to the number of infectious viruses. While with a viral titer of 10^5 the syncytia formation starts within four days already, it is delayed by about 2 weeks when the original virus solution has been diluted 10,000 times.
The delay of giant cell formation, which is shown in FIG. 1, is due to a reduction of the number of infectious virions—because of a correlation between viral titer and the number of syncytia. It is in no case caused by an influence of the metabolism of the host cell. The reduced capability to form giant cells (FIG. 1) can be quantified as titer exponent n by observing the laws established by Spearmann-Kärber.
With a total number of 4 preparations per dilution series there is [formula]
Thus, nNAC=−2.5 follows for the titer exponent after NAC treatment. Since the dilution stage of the untreated control, where syncytia formation could no longer be observed, was not determined accurately in this experiment, the maximum value for this preparation, i.e., 10^−6 was assumed as a calculation basis. Correspondingly, the titer of the untreated control is 10^−5,5 or less. The titer after the NAC treatment is 10^−2,5.

Experiment [2] shares this test system. The experiment can be described thus: p24-Ag test in cell culture medium of HIV-infected H9 cells, virions treated with NAC prior to infection. Format: cell-based. To be noted: for p24-Ag content in the cell culture medium, extinction at 492 nm: day 26 after infection, NAC-treated virions, exclusion limit <0.093. As to the method: as §1
This reduction of the infectiosity titer could also be confirmed by means of the p24-Ag test. For this purpose, the cell culture medium was renewed four days prior to the end of the experiment and the p24-Ag content of the cell culture medium was quantified upon termination of the experiment (day 26) (TABLE I). The p24-Ag values of the untreated control were always clearly positive.

Experiment [3] concerns HBsAg (hepatitis-B virus surface antigen). Put plainly: Enzyme immunoassay (Abbott Auszyme) of HBsAg in HepG2-2.2.15 supernatant treated with NAC. To be noted: 50 mM NAC. Format: biochemical. As to the method: The cell culture supernatant of a HBV-producing cell line (HepG2-2.2.15 cells, Sells et al., 1984, Proc. Natl. Acad. U.S.A. 84:1005-1009) was separated from the cells and then the viral antigens (HBsAg, hepatitis-B virus “surface” antigen) of the viral envelope were identified by means of an enzyme immunoassay (EIA). In a parallel experimental assay, the cell culture supernatant was treated with NAC directly before the EIA was carried out. […] Since as is known the main antigenic domain of HBsAg is stabilized by numerous disulfide bridges, it can be inferred from this experiment that NAC effects a change in the three-dimensional structure on the virus surface, which is caused by a separation of disulfide bridges. These very viral surface structures are essential for the attachment of the virus to its host cell and thus for its infectiosity.

Experiment [4] has as its system HBeAg (hepatitis-B virus e antigen). The experiment can be described thus: Enzyme immunoassay (Abbott HBe EIA) of HBeAg in HepG2-2.2.15 supernatant treated with NAC. Format: biochemical. To be noted: 50 mM NAC.
The subject of another experiment is vaccinia viruses. The experiment can be described thus: Plaque assay of vaccinia virus pre-incubated with NAC on CV1 cells. Format: cell-based. The note with it: pre-incubation with 3, 10, 30 mM NAC, assay variation ±9%.
Another experiment has as its system HBsAg. Put plainly: HBsAg antigenicity of NAC-treated HBV-positive supernatant with or without dialysis. Format: biochemical, hepatitis B virus. The note with it: 15 min incubation with NAC, dialysis against TNE buffer at 4° C. overnight versus not dialyzed.

For the compound `CC(=O)N[C@@H](CS)C(=O)O` [NAC, N-acetyl cysteine], the “reduction of the viral titer, measured on the basis of syncytia formation capability” value in experiment [1] (0.09 M NAC versus untreated control) is listed as “at least three decimal exponents”. Besides, in experiment [1] (0.09 M NAC, 2 h, room temperature, syncytia formation), the “titer exponent n after NAC treatment (Spearmann-Kärber)” value is reported as −2.5. Besides, the “syncytia formation within the observation period” value in experiment [1] (NAC-treated virions diluted by more than 100 times (viral titer <10^4), observation period of four weeks) is given as “no longer possible to observe syncytia formation”. The “Test positives p/4 (syncytia formation)” value in experiment [1] (class limit -1 (virus dilution 10^-1)) is given as 4/4; in experiment [1] (class limit -2 (virus dilution 10^-2)), 1/4; in experiment [1] (class limit -3 (virus dilution 10^-3)) it was 1/4; in experiment [1] (class limit -4 (virus dilution 10^-4)), 2/4; in experiment [1] (class limit -5 (virus dilution 10^-5)), 0/4. Besides, in experiment [2] (from an HIV dilution factor of 1/100 on, day 26), the “p24-Ag content in the cell culture medium versus untreated control” value is recorded as “marked reduction”. The “p24-Ag content in the cell culture medium, extinction at 492 nm” value is >2.0 O.D. 492 nm in experiment [2] (virus dilution 10^-1); 0.069 O.D. 492 nm and 0.04 O.D. 492 nm and 0.044 O.D. 492 nm in experiment [2] (virus dilution 10^-5). The “detection of HBsAg by EIA” value in experiment [3] is recorded as “not possible”. In addition, the “recognition of HBeAg by EIA” value in experiment [4] is recorded as “recognized unrestrictedly”. Further, the “reduction of the viral titer of the vaccinia virus suspension” value in the experiment on vaccinia viruses is on record as “up to 70%”. Besides, in the experiment on HBsAg, the “effect of NAC on the viruses (HBsAg antigenicity) after removing NAC by dialysis” value was “irreversible”.
